According to ChEMBL document CHEMBL3639376, “IRE-1Œ± inhibitors” (2015):

The compounds below were run against Serine/threonine-protein kinase/endoribonuclease IRE1 (Homo sapiens, UniProt O75460) (assay: Inhibition Assay: A fusion protein comprising glutathione S transferase (GST) and human IRE-1alpha (GST-IRE-1alpha) obtained from a 500 ml baculovirus-infected insect cell culture can be used to measure IRE-1alpha activity in vitro. Five ul of a reaction mixture comprising IX reaction buffer (5x reaction buffer is 100 mM Hepes pH 7.5, 250 mM KOAc, 2.5 mM MgCl2), 3 mM DTT, and 0.4% polyethylene glycol water is added to each well of 384 well plates. Twenty-five nanoliters of a 1 mM test compound solution are added to test wells. Three ul of a 128 ng/ml IRE-1alpha preparation are added to each test well and to positive control wells (final concentration 5.82 ng/well). Negative control wells contain only reaction mixture and test compound.After spinning the plates at 1200 rpm for 30 seconds, 3 ul of an IRE-1alpha human mini-XBP-1 mRNA stem-loop substrate 5'-[…]-3' (SEQ ID NO:1), labeled with the fluorescent dye Cy5 at the 5' end and Black Hole Quencher 2.).
Serine/threonine-protein kinase/endoribonuclease IRE1, sequence (O75460 whole entry, the tested form may be a part): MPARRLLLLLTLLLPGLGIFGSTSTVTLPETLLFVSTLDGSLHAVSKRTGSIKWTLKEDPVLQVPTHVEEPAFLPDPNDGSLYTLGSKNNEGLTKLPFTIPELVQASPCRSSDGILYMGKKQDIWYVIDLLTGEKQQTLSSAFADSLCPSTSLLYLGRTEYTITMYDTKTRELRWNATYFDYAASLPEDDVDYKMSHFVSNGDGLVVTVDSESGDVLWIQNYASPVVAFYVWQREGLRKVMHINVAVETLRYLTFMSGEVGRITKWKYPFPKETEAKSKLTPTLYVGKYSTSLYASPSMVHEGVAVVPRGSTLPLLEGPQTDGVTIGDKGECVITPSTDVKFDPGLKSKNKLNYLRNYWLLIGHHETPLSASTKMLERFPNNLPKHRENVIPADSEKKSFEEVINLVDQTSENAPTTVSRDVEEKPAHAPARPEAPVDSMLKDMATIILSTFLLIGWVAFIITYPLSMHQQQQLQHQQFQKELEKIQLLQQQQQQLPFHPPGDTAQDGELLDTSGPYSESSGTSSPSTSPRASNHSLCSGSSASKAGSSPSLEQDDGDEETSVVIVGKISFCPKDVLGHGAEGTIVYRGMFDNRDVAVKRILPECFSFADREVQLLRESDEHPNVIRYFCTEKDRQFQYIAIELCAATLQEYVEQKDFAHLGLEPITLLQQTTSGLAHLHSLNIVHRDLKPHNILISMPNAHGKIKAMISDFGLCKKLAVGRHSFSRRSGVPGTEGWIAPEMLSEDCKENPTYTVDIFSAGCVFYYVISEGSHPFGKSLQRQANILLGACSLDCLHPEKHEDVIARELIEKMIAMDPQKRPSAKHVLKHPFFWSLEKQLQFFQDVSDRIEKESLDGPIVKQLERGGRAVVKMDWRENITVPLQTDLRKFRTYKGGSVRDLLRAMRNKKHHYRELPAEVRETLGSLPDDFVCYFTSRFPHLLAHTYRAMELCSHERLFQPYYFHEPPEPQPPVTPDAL

Compound	IC50
COC(=O)c1ccc(-c2nc3ccc(O)c(C=O)c3[nH]2)cc1	< 1000 nM
Cc1c(CCC(=O)N2CCOCC2)c(=O)oc2c(C=O)c(O)ccc12	< 100 nM
Cc1c(Br)c(=O)oc2c(C=O)c(O)ccc12	< 100 nM
CN1CCN(CCC(=O)N2CCc3c(ccc(O)c3C=O)C2)CC1	> 10000 nM
Cc1c(-c2cccc(C(=O)N3CCCC3)c2)c(=O)oc2c(C=O)c(O)ccc12	< 100 nM
Cc1c(-c2ccc(C(=O)N3CCC(C)CC3)cc2)c(=O)oc2c(C=O)c(O)ccc12	< 1000 nM
O=Cc1c(O)ccc2nc(-c3ccc(C(=O)N4CCCC4)cc3)ccc12	< 100 nM
Cc1c(Cc2ccccc2)c(=O)oc2c(C=O)c(O)c(O)cc12	< 100 nM
O=Cc1c(O)ccc2nc(-c3cccc(C(=O)N4CCOCC4)c3)ccc12	< 1000 nM
Cc1cc(=O)oc2c(C=O)c(O)c(F)cc12	< 1000 nM
O=Cc1c(O)ccc2nc(-c3ccc(C(=O)O)cc3)[nH]c12	< 1000 nM
COc1cc2c(C)c(Br)c(=O)oc2c(C=O)c1O	< 100 nM
CC1CCN(C(=O)c2ccc(-c3ccc4c(C=O)c(O)ccc4n3)cc2)CC1	< 100 nM
CC(C)N1CCN(c2nc3ccc(O)c(C=O)c3s2)CC1	< 100 nM
O=Cc1c(O)ccc2nc(-c3ccc(C(=O)NCCN4CCOCC4)cc3)[nH]c12	< 100 nM
CN1CCN(C(=O)c2ccc(-c3nc4ccc(O)c(C=O)c4[nH]3)cc2)CC1	< 100 nM
CN1CCN(C2CCN(c3nc4ccc(O)c(C=O)c4s3)C2)CC1 (stereo not given)	< 100 nM

Other lines, results leading:

IC50	Compound
< 100 nM	O=Cc1c(O)ccc2nc(-c3ccc(C(=O)N4CCOCC4)cc3)[nH]c12
< 100 nM	Cc1c(-c2cccc(C(=O)N3CCOCC3)c2)c(=O)oc2c(C=O)c(O)ccc12
< 100 nM	CC1CCN(C(=O)c2ccc(-c3nc4ccc(O)c(C=O)c4s3)cc2)CC1
< 10000 nM	Cc1nc(N2CCc3c(ccc(O)c3C=O)C2)sc1C(=O)N1CCOCC1
< 100 nM	CN1CCN(C(=O)c2ccc(-c3nc4ccc(O)c(C=O)c4s3)s2)CC1
< 1000 nM	Cc1c(-c2ccc(C(=O)N3CCCC3)cc2)c(=O)oc2c(C=O)c(O)ccc12
< 100 nM	O=Cc1c(O)ccc2cc(-c3ccc(Br)cc3)c(=O)oc12
< 100 nM	CCN(CC)CCc1c(C)c2ccc(O)c(C=O)c2oc1=O
< 100 nM	O=Cc1c(O)ccc2nc(N3CCC(NC(=O)CN4CCOCC4)C3)ccc12 (stereo not given)
< 1000 nM	COc1cc2c(C)c(-c3ccc(C(=O)N4CCOCC4)cc3)c(=O)oc2c(C=O)c1O
< 100 nM	Cc1c(-c2ccc(C(=O)N3CCN(C)CC3)cc2)c(=O)oc2c(C=O)c(O)ccc12
< 1000 nM	Cc1c(Br)c(=O)oc2c(C=O)c(O)c(F)cc12
< 100 nM	CC(=O)NC1CCN(c2ccc3c(C=O)c(O)ccc3n2)C1 (stereo not given)
